Series [1] in a line: Solubility / dissolution in water. Format: physicochemical. From the text:
Paroxetine hydrochloride has been described in the literature as a crystalline hemihydrate (see EP-A-0223403 of Beecham Group) and as various crystalline anhydrate forms (see WO96/24595 of SmithKline Beecham plc). These known forms are not ideally suited for all pharmaceutical applications. […] Furthermore, liquids can be dispensed into unit dosages more conveniently and precisely than solids, and the use of liquid feedstocks reduces hazards associated with dust. In addition, the known solid forms of paroxetine hydrochloride are relatively insoluble and are slow to dissolve completely.
The product is homogenous without any further processing and is obtained in 100% yield, a higher yield than is possible in any crystallisation process.

A short description of series [2]: Stability of aqueous solutions. Format: physicochemical. From the text:
The feedstock for freeze-drying may be prepared conveniently by, for example, dissolution of paroxetine free base in aqueous hydrochloric acid, although other solid forms of paroxetine hydrochloride may also be dissolved. For example, the feedstock may be prepared by dissolving amorphous paroxetine hydrochloride or a crystalline paroxetine hydrochloride anhydrate, hydrate or solvate in suitable solvent. The solvent used may be pure water or a mixture of water with compatible organic solvents. […] Suitable concentrations of paroxetine hydrochloride for freeze-drying are in the range 1 to 30% by weight, preferably in the range 5% to 20% by weight.
Processing at elevated temperature may be employed to reduce the risk of unwanted crystallisation during processing but is not essential.

The conditions of series [3]: known forms, well documented in the literature; cited from earlier work.

Counter-ions that a name gives are not always drawn.

With `Fc1ccc([C@@H]2CCNC[C@H]2COc2ccc3c(c2)OCO3)cc1` [freeze-dried paroxetine hydrochloride, paroxetine hydrochloride], the “dissolution of the freeze-dried product” value in series [1] is “dissolves quickly and completely”. In addition, the “stability of reconstituted aqueous solution” value in series [2] (freeze-dried product dispersed in water, concentration for parenteral dosage, supersaturated with respect to hemihydrate) is on record as “sufficiently stable for liquid dispensing”.
`Fc1ccc([C@@H]2CCNC[C@H]2COc2ccc3c(c2)OCO3)cc1` [paroxetine hydrochloride hemihydrate, Paroxetine hydrochloride hemihydrate]: the “stability of aqueous solution of a concentration suitable for freeze-drying” value in series [2] (highly supersaturated with respect to paroxetine hydrochloride hemihydrate) was “sufficiently stable for sterile filtration and liquid processing”.
As to `Fc1ccc([C@@H]2CCNC[C@H]2COc2ccc3c(c2)OCO3)cc1` [paroxetine hydrochloride, (−)trans isomer of 4-(4′-fluorophenyl)-3-(3′,4′-methylenedioxyphenoxymethyl)-piperidine], the solubility in water entry in series [3] is “low solubility in water”. The “stability of aqueous solution” value in series [2] (ambient temperature, once dissolved, in the absence of seeds of a crystalline form) is given as “stable at ambient temperature for many days”.
